Paper PMC12307583 (Scientific Reports, 2025)

Assays:
PfGrp170 [1] = target: T1, PfGrp170 (Plasmodium falciparum, UniProt C0H5H0); test: suppression of heat-induced MDH aggregation, light scattering […] nm; format: biochemical; conditions: 100 µM NECA, 1 µM PfGrp170, MDH (pig heart), 20 mM Tris-HCl pH 7.5, 200 mM NaCl, 5 mM MgCl2, 48 °C; inhibitor of chaperone function
T1 sequence (C0H5H0 20-932): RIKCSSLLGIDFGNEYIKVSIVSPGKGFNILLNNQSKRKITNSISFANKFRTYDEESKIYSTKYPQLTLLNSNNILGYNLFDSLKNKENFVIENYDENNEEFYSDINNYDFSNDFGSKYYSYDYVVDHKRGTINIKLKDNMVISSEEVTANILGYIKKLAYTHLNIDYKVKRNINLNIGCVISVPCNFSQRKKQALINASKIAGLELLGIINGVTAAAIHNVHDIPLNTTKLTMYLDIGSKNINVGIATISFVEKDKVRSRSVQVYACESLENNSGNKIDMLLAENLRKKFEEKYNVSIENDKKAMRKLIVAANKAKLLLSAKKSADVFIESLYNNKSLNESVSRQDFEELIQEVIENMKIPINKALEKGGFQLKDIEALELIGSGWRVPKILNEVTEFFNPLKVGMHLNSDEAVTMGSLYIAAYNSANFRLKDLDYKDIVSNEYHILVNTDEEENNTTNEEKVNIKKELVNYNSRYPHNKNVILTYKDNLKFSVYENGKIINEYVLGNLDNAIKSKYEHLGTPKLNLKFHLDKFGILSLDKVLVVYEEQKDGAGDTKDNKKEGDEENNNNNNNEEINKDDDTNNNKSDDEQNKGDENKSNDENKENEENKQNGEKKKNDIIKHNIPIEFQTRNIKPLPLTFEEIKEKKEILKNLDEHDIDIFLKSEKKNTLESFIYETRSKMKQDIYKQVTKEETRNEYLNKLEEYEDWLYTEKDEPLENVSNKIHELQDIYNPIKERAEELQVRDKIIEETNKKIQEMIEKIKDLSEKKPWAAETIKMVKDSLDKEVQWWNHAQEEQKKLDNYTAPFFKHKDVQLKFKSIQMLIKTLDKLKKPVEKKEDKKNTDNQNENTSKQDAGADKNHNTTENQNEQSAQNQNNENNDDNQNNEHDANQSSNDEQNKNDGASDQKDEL

PfGrp170 [2] = target: T1, PfGrp170; test: biochemical
PfGrp94 = PfGrp94 (Plasmodium falciparum, UniProt Q8I0V4); conditions: basal ATPase; used as control protein
Chain of PfGrp94 (Q8I0V4 29-821): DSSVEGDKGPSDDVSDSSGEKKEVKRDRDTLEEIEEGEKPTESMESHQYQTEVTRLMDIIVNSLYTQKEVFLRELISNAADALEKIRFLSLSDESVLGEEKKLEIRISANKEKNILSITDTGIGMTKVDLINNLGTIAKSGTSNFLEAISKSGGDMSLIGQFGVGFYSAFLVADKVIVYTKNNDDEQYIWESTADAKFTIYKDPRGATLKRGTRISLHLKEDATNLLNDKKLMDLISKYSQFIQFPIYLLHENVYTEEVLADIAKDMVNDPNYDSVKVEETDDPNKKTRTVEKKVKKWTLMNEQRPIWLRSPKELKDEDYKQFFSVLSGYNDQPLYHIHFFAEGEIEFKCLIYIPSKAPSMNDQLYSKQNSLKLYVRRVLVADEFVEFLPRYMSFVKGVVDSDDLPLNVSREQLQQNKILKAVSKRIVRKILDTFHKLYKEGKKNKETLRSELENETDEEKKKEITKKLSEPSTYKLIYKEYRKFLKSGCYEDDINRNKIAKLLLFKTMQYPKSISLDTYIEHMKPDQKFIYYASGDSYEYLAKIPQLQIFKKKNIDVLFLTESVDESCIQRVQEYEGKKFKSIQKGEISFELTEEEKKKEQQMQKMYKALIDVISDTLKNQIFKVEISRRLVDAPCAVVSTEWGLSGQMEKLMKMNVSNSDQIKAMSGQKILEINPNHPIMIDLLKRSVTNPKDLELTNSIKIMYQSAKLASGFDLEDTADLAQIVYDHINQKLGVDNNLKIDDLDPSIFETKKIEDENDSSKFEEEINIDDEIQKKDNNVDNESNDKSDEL

Row | Compound | relative aggregation (PfGrp170 [1]) | Kd (PfGrp170 [2]) [µM] | ATPase activity (PfGrp94)
1 | CCNC(=O)[C@H]1O[C@@H](n2cnc3c(N)ncnc32)[C@H](O)[C@@H]1O [NECA] | higher concentrations of NECA abrogated the chaperone function of PfGrp170 |  | 
2 | Nc1ncnc2c1ncn2[C@@H]1O[C@H](COP(=O)(O)OP(=O)(O)OP(=O)(O)O)[C@@H](O)[C@H]1O [ATP] |  | 0.143 ± 0.0156 | The basal ATPase activity of PfGrp170 and PfGrp94 as control
